Measurements reported in patent publication US20160016907A1, “PYRIDINE DERIVATIVES AS MUSCARINIC M1 RECEPTOR POSITIVE ALLOSTERIC MODULATORS” (PFIZER INC., priority 2014, published 2016).

Molecular target: T1, human M1 muscarinic acetylcholine receptors (Homo sapiens, UniProt P11229)
T1 sequence (P11229 1-460): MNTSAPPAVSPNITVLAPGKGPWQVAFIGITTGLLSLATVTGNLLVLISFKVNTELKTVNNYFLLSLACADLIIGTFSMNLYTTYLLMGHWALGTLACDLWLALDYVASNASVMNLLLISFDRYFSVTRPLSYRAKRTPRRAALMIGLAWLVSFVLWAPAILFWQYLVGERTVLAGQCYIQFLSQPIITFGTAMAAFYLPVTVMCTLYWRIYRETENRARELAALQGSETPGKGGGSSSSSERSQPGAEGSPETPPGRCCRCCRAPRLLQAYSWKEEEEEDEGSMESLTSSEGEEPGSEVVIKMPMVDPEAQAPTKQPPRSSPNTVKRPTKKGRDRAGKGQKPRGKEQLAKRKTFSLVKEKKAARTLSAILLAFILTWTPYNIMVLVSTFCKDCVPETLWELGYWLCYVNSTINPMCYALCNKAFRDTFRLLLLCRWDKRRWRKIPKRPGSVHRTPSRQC
Test: M1 FLIPR assay (PAM, intracellular calcium)
Type: cell-based
Conditions: potentiation of EC10-EC30 acetylcholine, values marked a: geometric mean of ≧7 determinations, read-out: M1 PAM Inflection Point (μM) Geometric mean of 2-6 determinations (unless otherwise indicated)
Experimental: This assay was designed to select and characterize compounds that affect the activity of human M1 muscarinic acetylcholine receptors (Similar M1 PAM FLIPR assays can be found, for example, at U.S. Pat. No. 8,664,234). Human M1 receptors were stably expressed in Chinese hamster ovary (CHO) cells (HD Bioscience). The effect of test compounds on intracellular calcium was measured on an FLIPR Tetra (Molecular Devices) using the Fluo-8, AM calcium dye (Molecular Probes) with a red dye quenching agent (Sigma).
CHO cells expressing hM1 cells had been previously cultured and frozen in assay ready vials. Cell vials were thawed, then plated at a density of 10,000 cells per well in a 384 well black wall, clear bottom plate (Greiner #781090) and incubated overnight at 37 degrees C. with 5% CO2. Cells were grown and plated in F12 nutrient media (Gibco BRL #21700-075) supplemented with 10% FBS (Hyclone #CH30160.03) and Pen/Strep (Gibco #15070-063).
After overnight incubation, cell plates were removed from the incubator and the growth media was discarded and replaced with loading solution containing the following: 2 μM Fluo-8-AM (Molecular Probes #F14242), 2 mM Probenecid (Sigma #P8761), lx Acid Red 1 (Sigma #210633), in HBSS buffer containing (grams/L): 0.1 CaCl2, 0.1 MgCl2*6H2O, 0.049 MgSO4, 0.4 KCl, 0.06 KH2PO4, 8.06 NaCl, 0.12 Na2HPO4*12H2O, 1.1 D-glucose*H2O, 0.35 NaHCO3, 4.766 HEPES, pH 7.4. The plate was incubated in the loading solution at 37 degrees C. in the dark for 1 hour.
Test compounds were initially prepared as 100% DMSO stock solutions, then transferred and serially diluted in 384-well compound plates (Greiner #784201). Each compound was tested at 10 concentrations in duplicate per experiment. Positive and negative controls for positive allosteric modulator evaluation were 30 μM acetylcholine (Ach) and an EC10-EC30 concentration of acetylcholine, approximately 2 nM but could be adjusted for each experiment to maintain the EC10-EC30 range.
After the 1-hour dye loading incubation, test compounds were added to the cell plate containing Fluo-8. Approximately 10 minutes after compound addition, an EC10-EC30 concentration of acetylcholine was added to each well and the fluorescence measured to determine the PAM potentiation of the compound.
Data was exported from the FLIPR Tetra as maximum fluorescence/minimum fluorescence for each well. The percent effect for each compound well was determined using the mean values for the positive and negative controls on each plate for each read. Percent effect was 100*(compound negative control)/(positive control negative control). Dose response curves were fitted to the compound percent effect data using a 4-parameter logistic fit model to determine PAM (positive allosteric modulator) Inflection Point values. Compounds with inverted U dose response curves had the concentrations greater than the concentration giving the peak response excluded from the fit. Data was reported as Inflection Point. The compounds of Examples 1-72 had activity according to this assay, generally with an Inflection Point (IP) of 10 μM or less (using Inflection Point as a measure of activity). Such a result is indicative of the intrinsic activity of the compounds of the invention as M1 allosteric modulators.

EC50 [µM] | SMILES
0.187 | O=C(N[C@H]1CCOC[C@@H]1O)c1cc(Cc2ccc(-n3cccn3)cc2)c(Cl)cn1 [Example 52, 5-chloro-N-[(3R,4S)-3-hydroxytetrahydro-2H-pyran-4-yl]-4-[4-(1H-pyrazol-1-yl)benzyl]pyridine-2-carboxamide]
0.191 | Cc1nc(C(=O)N[C@H]2CCCC[C@@H]2O)cc(Cc2ccc(-n3cccn3)cc2)c1Cl [Example 17, 5-Chloro-N-[(1S,2S)-2-hydroxycyclohexyl]-6-methyl-4-[4-(1H-pyrazol-1-yl)benzyl]pyridine-2-carboxamide]
3.5 | Cc1cnc(C(=O)NC2CCC(F)(F)C2)cc1Cc1ccc(-n2cccn2)cc1 (stereo not shown) [Example 48, N-(3,3-difluorocyclopentyl)-5-methyl-4-[4-(1H-pyrazol-1-yl)benzyl]pyridine-2-carboxamide]
2.83 | Cc1cnc(C(=O)N[C@H]2CCCC[C@@H]2O)cc1Cc1ccc(Cl)nc1 [Example 51, 4-[(6-chloropyridin-3-yl)methyl]-N-[(1S,2S)-2-hydroxycyclohexyl]-5-methylpyridine-2-carboxamide]
8.76 | Cc1cnc(C(=O)N[C@H]2CCCC[C@@H]2O)cc1C(F)c1ccc(-n2cccn2)cc1 (single isomer, unassigned) [Example 63]
0.142 | Cc1cnc(C(=O)N[C@H]2CCOC[C@@H]2O)cc1Cc1ccc(-c2ccn(C)n2)cc1 [Example 6, N-[(3R,4S)-3-Hydroxytetrahydro-2H-pyran-4-yl]-5-methyl-4-[4-(1-methyl-1H-pyrazol-3-yl)benzyl]pyridine-2-carboxamide]
> 9.12 | Cc1cnc(C(=O)N[C@H]2CCOC[C@@H]2O)cc1[C@@H](F)c1ccc(-n2cccn2)cc1 [Example 55, 4-{(S)-Fluoro[4-(1H-pyrazol-1-yl)phenyl]methyl}-N-[(3R,4S)-3-hydroxytetrahydro-2H-pyran-4-yl]-5-methylpyridine-2-carboxamide]
0.144 | Cc1cnc(C(=O)N[C@H]2CCOC[C@@H]2O)cc1Cc1ccc(-c2cocn2)cc1 [Example 57, N-[(3R,4S)-3-Hydroxytetrahydro-2H-pyran-4-yl]-5-methyl-4-[4-(1,3-oxazol-4-yl)benzyl]pyridine-2-carboxamide]
8.03 | Cc1cnc(C(=O)NCC(=O)N(C)C)cc1Cc1ccc(-n2cccn2)cc1 [Example 41, N-[2-(dimethylamino)-2-oxoethyl]-5-methyl-4-[4-(1H-pyrazol-1-yl)benzyl]pyridine-2-carboxamide]
1.12 | Cc1cnc(C(=O)N[C@H]2C[C@@](C)(O)C2)cc1Cc1ccc(-n2cccn2)cc1 [Example 30]
0.048 | Cc1nc(-c2ccc(Cc3cc(C(=O)N[C@H]4CCOC[C@@H]4O)ncc3C)cc2)cs1 [Example 69, N-[(3R,4S)-3-hydroxytetrahydro-2H-pyran-4-yl]-5-methyl-4-[4-(2-methyl-1,3-thiazol-4-yl)benzyl]pyridine-2-carboxamide]
1.02 | Cc1cnc(C(=O)NC2CCCC2O)cc1Cc1ccc(-n2cccn2)cc1 (racemic) [Example 34, N-[trans-2-hydroxycyclopentyl]-5-methyl-4-[4-(1H-pyrazol-1-yl)benzyl]pyridine-2-carboxamide]
8.13 | Cc1cnc(C(=O)NCc2ccon2)cc1Cc1ccc(-n2cccn2)cc1 [Example 42, 5-methyl-N-(1,2-oxazol-3-ylmethyl)-4-[4-(1H-pyrazol-1-yl)benzyl]pyridine-2-carboxamide]
1.46 | Cc1cnc(C(=O)NC2CCCCC2O)cc1Cc1ccc(-n2cccn2)cc1 (single isomer, unassigned; (+)) [Example 13, (+)-N-[(1,2-cis)-2-Hydroxycyclohexyl]-5-methyl-4-[4-(1H-pyrazol-1-yl)benzyl]pyridine-2-carboxamide]
0.198 | O=C(N[C@H]1CCOC[C@@H]1O)c1cc(Cc2ccc(-n3cccn3)cc2)c(C(F)F)cn1 [Example 54, 5-(difluoromethyl)-N-[(3R,4S)-3-hydroxytetrahydro-2H-pyran-4-yl]-4-[4-(1H-pyrazol-1-yl)benzyl]pyridine-2-carboxamide]
0.129 | O=C(N[C@H]1CCOC[C@@H]1O)c1cc(Cc2ccc(-n3cccn3)cc2)c(OC(F)F)cn1 [Example 62, 5-(difluoromethoxy)-N-[(3R,4S)-3-hydroxytetrahydro-2H-pyran-4-yl]-4-[4-(1H-pyrazol-1-yl)benzyl]pyridine-2-carboxamide]
